Test results taken from patent US20240238274A1, “INHIBITORS OF UBIQUITIN SPECIFIC PEPTIDASE 22 (USP22) AND USES THEREOF FOR TREATING DISEASE AND DISORDERS” (Northwestern University, priority 2021, published 2024).

Assays:
naïve mice = assay: In vivo toxicity and Treg phenotype in naïve mice
Protocol: D, Graphical representation of Foxp3 MFI upon Usp22i-S02 administration (n=5). E, Tumor growth curve of LLC1 cells subcutaneously injected in the flank of WT mice with or without the addition of 20 mg/kg/time of the Usp22 inhibitor starting at day 15, in 100 μL of oil (n=4). F-G, Representative flow cytometry plot and graphical representation of % infiltration of CD4+ and CD8+ T cells within the tumor (n=4). […] I, MFI of itTreg suppressive markers (n=3-4). […] B, D-E, G, H-I Two-way ANOVA with multiple comparisons between rows was performed to determine statistical significance. J, Unpaired two tailed T test was performed to determine significance. All data are presented as mean±stdev. NS, not significant. *P<0.05, **P<0.01, ***P<0.001, ****P<0.0001.
A, Body weight of Usp22i-S02 treated mice verses DMSO treated controls over the course of treatment (n=4). […] B, Percent of cell populations in naïve mice treated with Usp22i-S02 relative to DMSO control (n=3-4). […] E, Percent Annexin+PI+ T cells gates on CD45+ cells in naïve mice treated with Usp22i-S02 relative to DMSO control (n=4). F-H, Organ toxicity panel (VetScan VS2 Comprehensive Diagnostic Rotor lot 1061AA2) of naïve mice treated with Usp22i-S02 relative to DMSO control (n=2-3). […] J, Weights of resected tumors at day 16 from I (n=10). K-L, Representative flow plot and graphical representation of infiltrating T cells gated on CD45+ cells (n=5). […] Q, Percent of intratumoral Treg cells from mice treated with Usp22i-S02 verses DMSO control, gated on CD4+Foxp3+ from mice (n=5). A-E, I and L, Two-way ANOVA with Sidaks's multiple comparisons between rows relative to control was performed to determine statistical significance. F-H, J, and M-Q, Two-tailed unpaired t-test was performed to determine statistical significance. All data are presented as mean±stdev. NS, not significant. *P<0.05, **P<0.01, ***P<0.001, ****P<0.0001.
An important aspect of a potential immunotherapeutic is its antitumor functionality paired with low immune toxicity. To determine the toxicity of Usp22i-S02 in vivo, we first determined its effects in naïve mice.

[1] = tested on: Foxp3 in human Treg cells; assay: Foxp3 MFI of human Treg cells treated with Usp22i-S02; assay type: cell-based; conditions: low doses
Protocol: FIG. 15: Usp22i-S02 halts Usp22-mediated Foxp3 deubiquitination. A, Graphical representation of Foxp3 MFI change in WT versus 22KO iTreg cells treated with various doses of Usp22i-S02 (n=3). B, Representative histogram of Foxp3 MFI level in iTreg cells as Usp22 inhibitor concentration increases from 0-20 μg/mL. C, Cell survival of iTreg cells treated with various doses of Usp22i-S02 (n=3). D, FOXP3 and USP22 protein level in WT and 22KO mice treated with 10 μg/mL Usp22i-S02. E-F, Graphical and representative data of Foxp3 MFI of human Treg cells treated with various doses of Usp22i-S02 (n=3). G, Graphical representation of Foxp3 MFI in WT, Usp21-null, and Usp22-null Treg cells treated with Usp22i-S02 at 10 μg/mL (n=3). H, FOXP3 and USP22 protein degradation of cycloheximide (10 μg/mL) treated iTreg cells with or without the addition of 10 μg/mL of Usp22i-S02. I-J, Endogenous DUB assay IP in iTreg cells of USP22 with FOXP3 under increasing concentrations of Usp22i-S02. K, Foxp3 mRNA level in iTreg cells as Usp22 inhibitor concentration increases from 0-20 μg/mL (n=3). L, FOXP3 and USP22 level in WT iTreg cells with or without 20 μg/mL Usp22 inhibitor treated with 20 μM MG132. M, Graphical representation of the percentage of decrease of Foxp3 MFI in either WT or Usp22-null nTreg cells placed in low glucose conditions with or without the addition of 10 μg/mL of Usp22i-S02 (n=7-8). […]

N#Cc1c2c(c(Nc3ccccc3)n3c1nc1ccccc13)CCCC2 [Chemical S02, 11-anilino-7,8,9,10-tetrahydro-benzimidazo [1,2-b] isoquinoline-6-carbonitrile]
FOXP3 MFI in Treg cells from the spleen and lymph nodes (naïve mice; WT mice, 20 mg/kg in vivo): significant drop in FOXP3 MFI | Treg cell death (naïve mice; naïve mice vs DMSO control): significantly increased | organ toxicity (comprehensive tissue panel) (naïve mice; naïve mice vs DMSO-treated control): no organ toxicity differences | weights, B cell and Teff cell percentages and proliferation, Teff cell activation (naïve mice; naïve mice vs DMSO-treated control, 10 mg/kg twice a day for 3 days): little alteration | Foxp3 MFI [1]: significantly decreased Foxp3 MFI | cell viability [1]: little effect to cell viability
